Laboratory results published in patent US10934274B2, “Quinoline derivatives as TAM RTK inhibitors” (Qurient Co., Ltd., priority 2015, dated 2021).

Columns and labels:
Mer = molecular target: T1, Mer (Homo sapiens, UniProt Q12866); test: LanthaScreen Eu kinase binding assay, Mer; details: Tracer 236
T1 construct: purchased Life Technologies
T1 sequence (Q12866 21-999): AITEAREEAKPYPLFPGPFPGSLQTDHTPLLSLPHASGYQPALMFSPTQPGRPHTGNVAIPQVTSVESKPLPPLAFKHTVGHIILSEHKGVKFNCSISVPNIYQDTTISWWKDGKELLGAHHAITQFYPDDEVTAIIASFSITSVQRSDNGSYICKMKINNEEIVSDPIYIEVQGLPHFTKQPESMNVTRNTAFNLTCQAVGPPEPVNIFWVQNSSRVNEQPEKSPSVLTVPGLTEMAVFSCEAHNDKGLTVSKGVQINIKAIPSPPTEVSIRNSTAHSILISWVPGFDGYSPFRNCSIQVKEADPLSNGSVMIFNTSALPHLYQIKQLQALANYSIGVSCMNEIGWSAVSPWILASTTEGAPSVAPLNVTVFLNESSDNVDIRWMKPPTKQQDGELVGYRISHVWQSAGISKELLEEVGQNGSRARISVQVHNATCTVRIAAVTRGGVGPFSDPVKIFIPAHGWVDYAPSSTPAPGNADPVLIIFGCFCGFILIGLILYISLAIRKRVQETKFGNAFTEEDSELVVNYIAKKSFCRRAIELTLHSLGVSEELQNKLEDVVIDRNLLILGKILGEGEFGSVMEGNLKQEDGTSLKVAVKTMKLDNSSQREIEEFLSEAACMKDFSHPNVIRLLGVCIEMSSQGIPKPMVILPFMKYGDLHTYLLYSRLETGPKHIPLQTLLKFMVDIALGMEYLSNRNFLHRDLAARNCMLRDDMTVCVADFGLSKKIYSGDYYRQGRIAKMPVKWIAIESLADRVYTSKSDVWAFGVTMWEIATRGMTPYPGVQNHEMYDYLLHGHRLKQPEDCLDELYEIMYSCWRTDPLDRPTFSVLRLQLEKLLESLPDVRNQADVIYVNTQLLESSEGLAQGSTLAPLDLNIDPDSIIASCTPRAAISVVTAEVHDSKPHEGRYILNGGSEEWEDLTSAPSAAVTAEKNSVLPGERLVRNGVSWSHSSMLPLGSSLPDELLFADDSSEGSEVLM
Method: (§1) LanthaScreen® Eu Kinase Binding assays were conducted at Life Technologies using the manufacturer's specifications for each kinase indicated.
(§2) Briefly, the principle behind this assay is based upon the binding and displacement of an Alexa Fluor 647-labeled tracer to the kinase of interest. Binding of the tracer to the kinase is detected using an EU-labeled anti-tag antibody. Simultaneous binding of both the tracer and antibody to the kinase gives rise to a FRET-signal. Binding of an inhibitor to the kinase competes for binding with the tracer, resulting in a loss of FRET-signal.
(§3) Binding Assay Protocol for AXL, Mer, Tyro3 and Met
(§4) A given compound was diluted in DMSO to make a stock compound solution. The stock compound solution was serially diluted over eight steps in DMSO. Each diluted compound solution in DMSO was diluted in kinase buffer. Afterwards four kinds of working solution were prepared. First, Tracer-Working solution consists of Tracer 236 and Kinase Buffer. Second, Axl, Mer, Tyro3 or Met/anti-GST-AB-Working solution contained one of the kinases Axl, Mer, Tyro3, Met or anti-GST-AB (=anti glutathione-S-transferase antibody) in Kinase Buffer. Third, anti-GST-AB-Working solution was made with anti-GST-AB and Kinase Buffer. Last, in the DMSO-Working solution DMSO was added to Kinase Buffer to a final concentration to 3%. Each of the four kinds of working solutions were separately added to the assay plate and then incubated for 1 h at room temperature. After incubation, the assay plate was measured with respect to the FRET-Signal with the EnVision (Perkin Elmer) using the program LanthaHTRF-Assay. Data evaluation was done in the Quattro Workflow software.
(§5) Table 1 summarises the results obtained for AXL, Mer and Tyro3-kinases binding assays; table 2 summarises the results obtained for the Met kinase binding assay.

TYRO3 = molecular target: T2, TYRO3 (Homo sapiens, UniProt Q06418); test: LanthaScreen Eu kinase binding assay, TYRO3; details: Tracer 236
T2 construct: purchased Life Technologies
T2 sequence (Q06418 41-890): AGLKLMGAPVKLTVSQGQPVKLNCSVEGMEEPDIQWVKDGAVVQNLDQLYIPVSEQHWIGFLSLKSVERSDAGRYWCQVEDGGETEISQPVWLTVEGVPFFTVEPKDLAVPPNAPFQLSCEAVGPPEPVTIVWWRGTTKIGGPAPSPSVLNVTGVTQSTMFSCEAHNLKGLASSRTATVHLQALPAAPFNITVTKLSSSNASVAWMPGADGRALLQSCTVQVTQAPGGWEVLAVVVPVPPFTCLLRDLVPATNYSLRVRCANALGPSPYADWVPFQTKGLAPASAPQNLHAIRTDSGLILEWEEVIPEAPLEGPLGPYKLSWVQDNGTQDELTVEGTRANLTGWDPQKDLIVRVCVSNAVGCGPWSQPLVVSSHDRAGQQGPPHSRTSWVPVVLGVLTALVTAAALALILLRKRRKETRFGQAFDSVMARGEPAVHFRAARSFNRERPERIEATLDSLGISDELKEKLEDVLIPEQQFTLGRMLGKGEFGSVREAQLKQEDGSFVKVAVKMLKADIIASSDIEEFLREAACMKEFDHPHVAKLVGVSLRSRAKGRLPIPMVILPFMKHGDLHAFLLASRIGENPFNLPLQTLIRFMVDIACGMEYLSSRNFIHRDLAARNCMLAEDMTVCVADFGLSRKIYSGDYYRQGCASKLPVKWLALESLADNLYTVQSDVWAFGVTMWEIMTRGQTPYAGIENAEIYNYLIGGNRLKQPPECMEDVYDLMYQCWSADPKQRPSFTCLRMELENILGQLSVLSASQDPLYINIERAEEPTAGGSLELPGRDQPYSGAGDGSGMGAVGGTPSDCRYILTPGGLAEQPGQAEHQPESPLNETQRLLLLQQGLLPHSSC
Method: as §1, §2, §3, §4, §5

Met = molecular target: T3, Met (Homo sapiens, UniProt P08581); test: LanthaScreen Eu kinase binding assay, Met; details: Tracer 236, read-out: cMet kinase binding activity (Kd)
T3 construct: purchased Life Technologies
Method: as §1, §2, §3, §4, §5

Axl = molecular target: T4, Axl (Homo sapiens, UniProt P30530); test: LanthaScreen Eu kinase binding assay, Axl; details: Tracer 236
T4 construct: purchased Life Technologies
T4 sequence (P30530 26-894): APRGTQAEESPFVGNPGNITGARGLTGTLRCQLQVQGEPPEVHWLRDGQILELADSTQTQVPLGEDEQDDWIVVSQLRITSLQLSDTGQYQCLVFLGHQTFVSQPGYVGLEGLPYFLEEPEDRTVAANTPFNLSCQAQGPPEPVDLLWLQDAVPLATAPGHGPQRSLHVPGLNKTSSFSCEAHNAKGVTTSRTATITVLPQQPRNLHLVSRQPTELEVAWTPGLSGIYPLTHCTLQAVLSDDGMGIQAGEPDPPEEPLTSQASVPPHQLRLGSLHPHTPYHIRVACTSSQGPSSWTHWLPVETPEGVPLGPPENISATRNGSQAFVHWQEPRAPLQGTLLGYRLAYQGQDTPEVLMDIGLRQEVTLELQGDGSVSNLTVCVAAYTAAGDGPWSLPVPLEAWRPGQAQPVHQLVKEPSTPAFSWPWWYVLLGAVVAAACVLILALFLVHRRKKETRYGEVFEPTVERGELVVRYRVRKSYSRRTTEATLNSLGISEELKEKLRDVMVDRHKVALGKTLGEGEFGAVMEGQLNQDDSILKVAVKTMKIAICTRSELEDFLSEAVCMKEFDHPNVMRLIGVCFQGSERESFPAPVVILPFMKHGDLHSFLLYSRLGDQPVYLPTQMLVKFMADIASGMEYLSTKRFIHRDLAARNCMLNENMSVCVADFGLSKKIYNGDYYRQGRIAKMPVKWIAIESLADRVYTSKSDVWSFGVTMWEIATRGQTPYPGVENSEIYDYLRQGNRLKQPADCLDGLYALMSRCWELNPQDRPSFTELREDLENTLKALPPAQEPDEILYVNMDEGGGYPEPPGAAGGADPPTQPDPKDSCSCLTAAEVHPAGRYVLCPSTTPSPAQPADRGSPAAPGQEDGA
Method: as §1, §2, §3, §4, §5

T3 sequence (P08581 25-1390): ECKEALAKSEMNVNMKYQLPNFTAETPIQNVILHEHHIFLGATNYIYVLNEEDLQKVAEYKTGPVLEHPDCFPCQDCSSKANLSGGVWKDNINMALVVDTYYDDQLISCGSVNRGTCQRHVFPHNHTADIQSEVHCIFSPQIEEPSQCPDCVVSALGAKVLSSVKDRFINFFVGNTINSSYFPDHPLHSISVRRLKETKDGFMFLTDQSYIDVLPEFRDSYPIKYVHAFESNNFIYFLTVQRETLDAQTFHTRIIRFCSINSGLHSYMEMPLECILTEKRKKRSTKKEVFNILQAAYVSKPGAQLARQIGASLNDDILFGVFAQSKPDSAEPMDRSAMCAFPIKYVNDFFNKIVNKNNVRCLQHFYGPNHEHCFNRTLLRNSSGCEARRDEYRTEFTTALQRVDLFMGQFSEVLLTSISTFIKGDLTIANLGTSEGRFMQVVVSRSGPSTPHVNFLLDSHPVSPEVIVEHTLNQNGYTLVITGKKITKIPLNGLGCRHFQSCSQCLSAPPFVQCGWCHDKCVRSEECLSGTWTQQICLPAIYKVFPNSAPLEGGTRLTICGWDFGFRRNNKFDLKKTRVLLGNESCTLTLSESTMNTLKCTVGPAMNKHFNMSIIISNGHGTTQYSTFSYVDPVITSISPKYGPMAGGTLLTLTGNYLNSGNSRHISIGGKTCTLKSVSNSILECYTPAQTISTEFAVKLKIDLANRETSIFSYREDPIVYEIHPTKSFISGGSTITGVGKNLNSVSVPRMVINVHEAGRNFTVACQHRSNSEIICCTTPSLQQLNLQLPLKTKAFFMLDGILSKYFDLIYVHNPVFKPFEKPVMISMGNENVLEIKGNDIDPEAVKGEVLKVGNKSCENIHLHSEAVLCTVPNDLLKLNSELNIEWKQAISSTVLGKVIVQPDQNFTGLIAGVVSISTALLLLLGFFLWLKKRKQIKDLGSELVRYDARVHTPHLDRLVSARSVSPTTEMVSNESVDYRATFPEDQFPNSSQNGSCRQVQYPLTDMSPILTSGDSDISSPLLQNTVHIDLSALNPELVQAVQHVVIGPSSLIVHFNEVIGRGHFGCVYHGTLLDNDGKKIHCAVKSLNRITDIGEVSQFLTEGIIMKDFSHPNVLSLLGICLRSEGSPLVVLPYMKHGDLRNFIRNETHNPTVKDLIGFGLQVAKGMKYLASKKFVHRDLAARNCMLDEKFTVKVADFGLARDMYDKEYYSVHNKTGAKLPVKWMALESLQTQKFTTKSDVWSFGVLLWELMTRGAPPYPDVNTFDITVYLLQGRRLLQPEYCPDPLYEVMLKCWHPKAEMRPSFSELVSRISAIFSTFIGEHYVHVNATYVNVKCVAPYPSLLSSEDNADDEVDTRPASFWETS

Compound	Kd (Mer)	Kd (TYRO3)	Kd (Met)	Kd (Axl)
CCOc1cnn(C2CCN(C)C2)c1C(=O)Nc1ccc(Oc2ccnc3cc(OC)c(OC)cc23)cn1 (stereo not shown) [Compound 75]	0.1 to 1 µM	≥ 1 µM	0.1 to 1 µM	0.1 to 1 µM
CCOc1cn(-c2nccnc2F)nc1C(=O)Nc1ccc(Oc2ccnc3cc(OC)c(OC)cc23)cn1 [Compound 178]	< 0.1 µM	< 0.1 µM	< 0.1 µM	< 0.1 µM
CCOc1cnn(Cc2cnccn2)c1C(=O)Nc1ccc(Oc2ccnc3cc(OC)c(OC)cc23)cc1F [Compound 217]	0.1 to 1 µM	≥ 1 µM	0.1 to 1 µM	≥ 1 µM
CCOc1nn(-c2cccnc2)cc1C(=O)Nc1ccc(Oc2ccnc3cc(OC)c(OC)cc23)cn1 [Compound 46]	≥ 1 µM	≥ 1 µM	≥ 1 µM	≥ 1 µM
CCOc1cn(-c2cnc(N)nc2)nc1C(=O)Nc1ccc(Oc2ccnc3cc(OC)c(OC)cc23)cc1F [Compound 153]	< 0.1 µM	< 0.1 µM	< 0.1 µM	< 0.1 µM
CCOc1cn(-c2cncc(C(F)(F)F)n2)nc1C(=O)Nc1ccc(Oc2ccnc3cc(OC)c(OC)cc23)cn1 [Compound 164]	< 0.1 µM	≥ 1 µM	0.1 to 1 µM	0.1 to 1 µM
CCOc1cn(CC(N)=O)nc1C(=O)Nc1ccc(Oc2ccnc3cc(OC)c(OC)cc23)cn1 [Compound 35]	< 0.1 µM	≥ 1 µM	≥ 1 µM	0.1 to 1 µM
COc1cc2nccc(Oc3ccc(NC(=O)c4nn(-c5ccc(F)c(Cl)c5)cc4OCC(F)(F)F)nc3)c2cc1OC [Compound 278]	< 0.1 µM	0.1 to 1 µM	0.1 to 1 µM	< 0.1 µM
CCOc1cnn(CCc2cccnc2)c1C(=O)Nc1ccc(Oc2ccnc3cc(OC)c(OC)cc23)cn1 [Compound 95]	< 0.1 µM	0.1 to 1 µM	< 0.1 µM	0.1 to 1 µM
CCOc1cnn(CC2CCN(C)CC2)c1C(=O)Nc1ccc(Oc2ccnc3cc(OC)c(OC)cc23)cc1F [Compound 220]	≥ 1 µM	≥ 1 µM	≥ 1 µM	≥ 1 µM
CCOc1cnn(C2CCN(C)CC2)c1C(=O)Nc1ccc(Oc2ccnc3cc(OC)c(OC)cc23)cc1F [Compound 223]	0.1 to 1 µM	≥ 1 µM	≥ 1 µM	≥ 1 µM
CCOc1cn(-c2ncc(Cl)cc2CN)nc1C(=O)Nc1ccc(Oc2ccnc3cc(OC)c(OC)cc23)cn1 [Compound 134]	< 0.1 µM	≥ 1 µM	< 0.1 µM	0.1 to 1 µM
CCOc1cn(-c2ncc(N)nc2C)nc1C(=O)Nc1ccc(Oc2ccnc3cc(OC)c(OC)cc23)cn1 [Compound 143]	< 0.1 µM	< 0.1 µM	< 0.1 µM	< 0.1 µM
CCOc1cn(-c2ccc(F)cc2C)nc1C(=O)Nc1ccc(Oc2ccnc3cc(OC)c(OC)cc23)c(NC(C)C)c1 [Compound 91]	0.1 to 1 µM	0.1 to 1 µM	≥ 1 µM	0.1 to 1 µM
CCOc1cn(-c2ccc(F)cc2C)nc1C(=O)Nc1ccc(Oc2ccnc3cc(OC)c(OC)cc23)cc1CO [Compound 119]	0.1 to 1 µM	0.1 to 1 µM	0.1 to 1 µM	0.1 to 1 µM
CCOc1cn(-c2ccc(C(C)(C)C)cc2)nc1C(=O)Nc1ccc(Oc2ccnc3cc(OC)c(OC)cc23)cn1 [Compound 121]	< 0.1 µM	≥ 1 µM	0.1 to 1 µM	0.1 to 1 µM
CCOc1cn(-c2cnc(N)cc2C)nc1C(=O)Nc1ccc(Oc2ccnc3cc(OC)c(OC)cc23)cn1 [Compound 137]	< 0.1 µM	0.1 to 1 µM	< 0.1 µM	< 0.1 µM
CCOc1cn(-c2cnc(C(F)(F)F)cn2)nc1C(=O)Nc1ccc(Oc2ccnc3cc(OC)c(OC)cc23)cn1 [Compound 159]	≥ 1 µM	≥ 1 µM	≥ 1 µM	≥ 1 µM
COc1cc2nccc(Oc3ccc(NC(=O)c4nn(-c5ccc(F)cc5C)cc4OCCN(C)C)cc3F)c2cc1OC [Compound 276]	< 0.1 µM	0.1 to 1 µM	< 0.1 µM	< 0.1 µM
